# Measurements published in the supplement of paper PMC4862054.
# System: MDA-MB-436
# Test: normalised response (% of control), CellTox Green; higher = less cell death (100 = DMSO, 0 = benzethonium chloride kill control)
# Settings: incubation time: 72 h
# Outline: (§1)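 Each entry is the normalised signal at a single concentration within a series. The series comprised 5 concentrations in 10-fold steps over a compound-specific 10,000-fold range, placed in 384-well plates into which breast cancer cell lines were seeded as 20 µl suspension and incubated 72 h. CellTox Green (485/520 nm) fluorescence and then CellTiter-Glo luminescence were read, with signals normalised per plate to 0.1 % DMSO (100) and a positive kill control (0).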
row,SMILES,normalised response
1,CS(=O)(=O)CCNCc1ccc(-c2ccc3ncnc(Nc4ccc(OCc5cccc(F)c5)c(Cl)c4)c3c2)o1 [Lapatinib] (10 nM),107%
2,Cc1cc(C(C)Nc2ccccc2)c2nc(N3CCOCC3)cc(=O)n2c1 (stereo not given) [TGX-221] (100 nM),97%
3,CCS(=O)(=O)c1cccc(-c2cc(C(=O)NC3CCN(C)CC3)c(C)c3[nH]c4ncc(C)cc4c23)c1 [TAK-901] (10 nM),96%
4,O=c1[nH]c(=O)n([C@H]2C[C@H](O)[C@@H](CO)O2)cc1F [Floxuridine] (100 nM),115%

# System: MDA-MB-453
# Test: as above
# Settings: incubation time: 72 h
# Outline: as §1
row,SMILES,normalised response
1,CC(C)(C)c1cc(NC(=O)Nc2ccc(-c3cn4c(n3)sc3cc(OCCN5CCOCC5)ccc34)cc2)no1 [Quizartinib] (10 nM),93.9%
2,CN(c1ccccc1CNc1nc(Nc2ccc3c(c2)CC(=O)N3)ncc1C(F)(F)F)S(C)(=O)=O (100 nM),103%
3,Nc1nccc(-c2c(-c3ccc(F)cc3)ncn2C2CCCCC2)n1 (100 nM),98.8%
4,COC1=C2C[C@@H](C)C[C@H](OC)[C@H](O)[C@@H](C)/C=C(\C)[C@H](OC(N)=O)[C@@H](OC)/C=C\C=C(/C)C(=O)NC(=CC1=O)C2=O [Geldanamycin] (100 nM),106%
5,Cn1c(=O)c(F)c(Nc2ccc(I)cc2F)c2c(=O)n(C[C@@H](O)CO)cnc21 [TAK-733] (10 nM),112%
6,CS(=O)(=O)CCNCc1ccc(-c2ccc3ncnc(Nc4ccc(OCc5cccc(F)c5)c(Cl)c4)c3c2)o1 [Lapatinib] (10 nM),103%
7,Cc1cc(C(C)Nc2ccccc2)c2nc(N3CCOCC3)cc(=O)n2c1 (stereo not given) [TGX-221] (100 nM),96%
8,CCS(=O)(=O)c1cccc(-c2cc(C(=O)NC3CCN(C)CC3)c(C)c3[nH]c4ncc(C)cc4c23)c1 [TAK-901] (10 nM),101%
9,O=c1[nH]c(=O)n([C@H]2C[C@H](O)[C@@H](CO)O2)cc1F [Floxuridine] (100 nM),104%

# System: MDA-MB-468
# Test: as above
# Settings: incubation time: 72 h
# Outline: as §1
row,SMILES,normalised response
1,CC(C)(C)c1cc(NC(=O)Nc2ccc(-c3cn4c(n3)sc3cc(OCCN5CCOCC5)ccc34)cc2)no1 [Quizartinib] (10 nM),137%
2,CN(c1ccccc1CNc1nc(Nc2ccc3c(c2)CC(=O)N3)ncc1C(F)(F)F)S(C)(=O)=O (100 nM),115%
3,Cn1c(=O)c(F)c(Nc2ccc(I)cc2F)c2c(=O)n(C[C@@H](O)CO)cnc21 [TAK-733] (10 nM),113%
4,CS(=O)(=O)CCNCc1ccc(-c2ccc3ncnc(Nc4ccc(OCc5cccc(F)c5)c(Cl)c4)c3c2)o1 [Lapatinib] (10 nM),87.9%
5,Cc1cc(C(C)Nc2ccccc2)c2nc(N3CCOCC3)cc(=O)n2c1 (stereo not given) [TGX-221] (100 nM),52.6%
6,CCS(=O)(=O)c1cccc(-c2cc(C(=O)NC3CCN(C)CC3)c(C)c3[nH]c4ncc(C)cc4c23)c1 [TAK-901] (10 nM),77.1%
7,O=c1[nH]c(=O)n([C@H]2C[C@H](O)[C@@H](CO)O2)cc1F [Floxuridine] (100 nM),96.2%

# System: MFM-223
# Test: as above
# Settings: incubation time: 72 h
# Outline: as §1
row,SMILES,normalised response
1,CC(C)(C)c1cc(NC(=O)Nc2ccc(-c3cn4c(n3)sc3cc(OCCN5CCOCC5)ccc34)cc2)no1 [Quizartinib] (10 nM),102%
2,CN(c1ccccc1CNc1nc(Nc2ccc3c(c2)CC(=O)N3)ncc1C(F)(F)F)S(C)(=O)=O (100 nM),103%
3,Nc1nccc(-c2c(-c3ccc(F)cc3)ncn2C2CCCCC2)n1 (100 nM),104%
4,COC1=C2C[C@@H](C)C[C@H](OC)[C@H](O)[C@@H](C)/C=C(\C)[C@H](OC(N)=O)[C@@H](OC)/C=C\C=C(/C)C(=O)NC(=CC1=O)C2=O [Geldanamycin] (100 nM),95.2%
5,Cn1c(=O)c(F)c(Nc2ccc(I)cc2F)c2c(=O)n(C[C@@H](O)CO)cnc21 [TAK-733] (10 nM),104%
6,CS(=O)(=O)CCNCc1ccc(-c2ccc3ncnc(Nc4ccc(OCc5cccc(F)c5)c(Cl)c4)c3c2)o1 [Lapatinib] (10 nM),105%
7,Cc1cc(C(C)Nc2ccccc2)c2nc(N3CCOCC3)cc(=O)n2c1 (stereo not given) [TGX-221] (100 nM),99.2%
8,CCS(=O)(=O)c1cccc(-c2cc(C(=O)NC3CCN(C)CC3)c(C)c3[nH]c4ncc(C)cc4c23)c1 [TAK-901] (10 nM),101%
9,O=c1[nH]c(=O)n([C@H]2C[C@H](O)[C@@H](CO)O2)cc1F [Floxuridine] (100 nM),98.5%

# System: BT-474
# Test: normalised response (% of control), CellTiter-Glo; higher = more viable cells (100 = DMSO, 0 = benzethonium chloride kill control)
# Settings: incubation time: 72 h
# Method: (§2)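 DSRT, 72 h incubation, CellTox Green / CellTiter-Glo readout. Signal is normalised to DMSO and benzethonium chloride controls. Value is the normalised response at dose 3.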
row,SMILES,normalised response
1,CC(C)(C)c1cc(NC(=O)Nc2ccc(-c3cn4c(n3)sc3cc(OCCN5CCOCC5)ccc34)cc2)no1 [Quizartinib] (10 nM),109%
2,CN(c1ccccc1CNc1nc(Nc2ccc3c(c2)CC(=O)N3)ncc1C(F)(F)F)S(C)(=O)=O (100 nM),89.8%
3,Nc1nccc(-c2c(-c3ccc(F)cc3)ncn2C2CCCCC2)n1 (100 nM),99.9%
4,COC1=C2C[C@@H](C)C[C@H](OC)[C@H](O)[C@@H](C)/C=C(\C)[C@H](OC(N)=O)[C@@H](OC)/C=C\C=C(/C)C(=O)NC(=CC1=O)C2=O [Geldanamycin] (100 nM),102%
5,Cn1c(=O)c(F)c(Nc2ccc(I)cc2F)c2c(=O)n(C[C@@H](O)CO)cnc21 [TAK-733] (10 nM),89.8%
6,CS(=O)(=O)CCNCc1ccc(-c2ccc3ncnc(Nc4ccc(OCc5cccc(F)c5)c(Cl)c4)c3c2)o1 [Lapatinib] (10 nM),101%
7,Cc1cc(C(C)Nc2ccccc2)c2nc(N3CCOCC3)cc(=O)n2c1 (stereo not given) [TGX-221] (100 nM),90.1%
8,CCS(=O)(=O)c1cccc(-c2cc(C(=O)NC3CCN(C)CC3)c(C)c3[nH]c4ncc(C)cc4c23)c1 [TAK-901] (10 nM),102%
9,O=c1[nH]c(=O)n([C@H]2C[C@H](O)[C@@H](CO)O2)cc1F [Floxuridine] (100 nM),99.3%

# System: BT-549
# Test: as above
# Settings: incubation time: 72 h
# Method: as §2
row,SMILES,normalised response
1,CC(C)(C)c1cc(NC(=O)Nc2ccc(-c3cn4c(n3)sc3cc(OCCN5CCOCC5)ccc34)cc2)no1 [Quizartinib] (10 nM),108%
2,CN(c1ccccc1CNc1nc(Nc2ccc3c(c2)CC(=O)N3)ncc1C(F)(F)F)S(C)(=O)=O (100 nM),97.9%
